According to patent US20140120166A1, “COMPOSITION OF ENTACOPONE” (INNOPHARMAX, INC., priority 2011, published 2014):

Assay: Dissolution test (FDA dissolution method for entacapone, USP paddle apparatus, HPLC analysis)
Format: physicochemical
Settings: USP standard paddle stirring apparatus, 50 rpm, 900 mL pH 5.5 phosphate buffer solution, 120 minutes
Protocol: The dissolution test was conducted according to the drug dissolution method for entacapone obtained by searching the Dissolution Methods Database provided on the FDA website (http://www.accessdata.fda.gov/scripts/cder/dissolution/dsp_Search Results_Dissolutions.cfm). The dissolution test was carried out using a USP standard paddle stirring apparatus with a rotation speed of 50 rpm. The solvent used was 900 mL pH 5.5 phosphate buffer solution and the period of test was 120 minutes.

- Dissolution Rate (%): about 81.15%
SMILES: CCN(CC)C(=O)/C(C#N)=C/c1cc(O)c(O)c([N+](=O)[O-])c1 [entacapone, (E)-2-cyano-3-(3,4-dihydroxy-5-nitro-phenyl)-N,N-diethyl-2-propenamide]
